Test results taken from ChEMBL document CHEMBL1145157, “Synthesis and structure-activity relationships of soluble 7-substituted 3-(3,5-dimethoxyphenyl)-1,6-naphthyridin-2-amines and related ureas as dual inhibitors of the fibroblast growth factor receptor-1 and vascular endothelial growth factor receptor-2 tyrosine kinases” (J Med Chem, 2005).

Experiments:
[1] = molecular target: Platelet-derived growth factor receptor (PDGFr) (Rattus norvegicus, UniProt P20786+Q05030); experiment: Inhibition of PDGF-dependent rat glioma cell proliferation; assay type: functional
[2] = molecular target: Platelet-derived growth factor receptor beta (Mus musculus, UniProt P05622); experiment: Inhibition of glutamate/tyrosine (4:1) copolymer phosphorylation by mouse platelet-derived growth factor receptor-beta
Platelet-derived growth factor receptor beta, sequence (P05622 whole entry): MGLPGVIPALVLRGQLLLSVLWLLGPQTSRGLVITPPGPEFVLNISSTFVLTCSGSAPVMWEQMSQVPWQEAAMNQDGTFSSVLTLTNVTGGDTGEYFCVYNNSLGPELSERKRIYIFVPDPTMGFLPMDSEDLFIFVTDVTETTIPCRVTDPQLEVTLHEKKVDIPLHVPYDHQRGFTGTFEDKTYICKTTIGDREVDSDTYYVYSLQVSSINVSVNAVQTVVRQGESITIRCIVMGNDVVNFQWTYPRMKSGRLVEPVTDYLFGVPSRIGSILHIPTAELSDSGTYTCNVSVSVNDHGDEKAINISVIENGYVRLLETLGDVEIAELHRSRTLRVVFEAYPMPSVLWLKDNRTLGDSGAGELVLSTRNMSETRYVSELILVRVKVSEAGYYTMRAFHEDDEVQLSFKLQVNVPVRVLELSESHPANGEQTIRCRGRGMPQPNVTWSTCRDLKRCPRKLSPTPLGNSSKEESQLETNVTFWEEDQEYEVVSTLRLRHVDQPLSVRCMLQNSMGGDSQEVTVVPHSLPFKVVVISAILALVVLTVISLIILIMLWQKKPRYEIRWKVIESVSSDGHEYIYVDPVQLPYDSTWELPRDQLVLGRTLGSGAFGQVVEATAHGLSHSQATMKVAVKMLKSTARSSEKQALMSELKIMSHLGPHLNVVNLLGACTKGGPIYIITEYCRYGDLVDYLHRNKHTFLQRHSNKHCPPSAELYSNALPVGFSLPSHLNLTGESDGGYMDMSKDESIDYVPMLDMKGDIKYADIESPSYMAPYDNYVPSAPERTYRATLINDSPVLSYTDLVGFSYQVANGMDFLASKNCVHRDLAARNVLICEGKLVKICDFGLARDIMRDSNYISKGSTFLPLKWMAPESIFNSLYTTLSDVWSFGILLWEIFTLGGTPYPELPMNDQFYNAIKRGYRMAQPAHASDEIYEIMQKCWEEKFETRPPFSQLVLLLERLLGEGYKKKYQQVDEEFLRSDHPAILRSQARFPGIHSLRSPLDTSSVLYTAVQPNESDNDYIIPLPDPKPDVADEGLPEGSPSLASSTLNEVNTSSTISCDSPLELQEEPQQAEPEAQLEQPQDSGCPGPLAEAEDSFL

[3] = molecular target: Proto-oncogene tyrosine-protein kinase Src (Gallus gallus, UniProt P00523); experiment: Inhibition of glutamate/tyrosine (4:1) copolymer phosphorylation by avian c-Src tyrosine kinase

| SMILES | IC50 [1] | IC50 [2] | IC50 [3] |
| --- | --- | --- | --- |
| CCN(CC)CCCCCNc1cc2nc(NC(=O)NC(C)(C)C)c(-c3cc(OC)cc(OC)c3)cc2cn1 | 1.5 µM | 5 µM | 3.6 µM |
| CCN(CC)CCCCNc1cc2nc(N)c(-c3ccccc3)cc2cn1 |  | 12 µM | 1.4 µM |
| CCNC(=O)Nc1nc2cc(NCCCN3CCN(C)CC3)ncc2cc1-c1c(Cl)cccc1Cl |  | 0.54 µM | 0.019 µM |
| COc1cc(OC)cc(-c2cc3cnc(NCCCOc4ccccc4)cc3nc2NC(=O)NC(C)(C)C)c1 |  | > 50 µM | > 50 µM |
| COc1cc(OC)cc(-c2cc3cnc(N(CCCCCOCc4ccccc4)C(C)=O)cc3nc2NC(=O)NC(C)(C)C)c1 |  | > 50 µM | > 50 µM |
| COc1cc(OC)cc(C2Cc3cnc(N(CCCCOCc4ccccc4)C(C)=O)cc3N=C2NC(=O)NC(C)(C)C)c1 (stereo unspecified) |  | > 50 µM | > 50 µM |
| COc1cc(OC)cc(-c2cc3cnc(NCCCO)cc3nc2NC(=O)NC(C)(C)C)c1 | 1.8 µM | 32 µM | > 50 µM |
| COc1cc(OC)cc(C2Cc3cnc(N(CCCCCOCc4ccccc4)C(C)=O)cc3N=C2NC(=O)NC(C)(C)C)c1 (stereo unspecified) |  | > 50 µM | > 50 µM |
| CCN(CC)CCCCNc1cc2nc(NC(=O)NC(C)(C)C)c(-c3cc(OC)cc(OC)c3)cc2cn1 | 2.1 µM | 2.6 µM | 4.6 µM |
| CCN(CC)CCCCNc1cc2nc(N)c(-c3cc(OC)cc(OC)c3)cc2cn1 | 5.9 µM | > 50 µM | 26 µM |
| CCN(CC)CCCNc1cc2nc(NC(=O)NC(C)(C)C)c(-c3cc(OC)cc(OC)c3)cc2cn1 | 4 µM | 18 µM | 16 µM |
| COc1cc(OC)cc(C2Cc3cnc(N(CCCCCO)C(C)=O)cc3N=C2NC(=O)NC(C)(C)C)c1 (stereo unspecified) |  | > 50 µM | > 50 µM |
| CCNC(=O)Nc1nc2cc(NCCCN3CCN(C)CC3)ncc2cc1-c1cc(OC)cc(OC)c1 | 7.5 µM | 30 µM | 14 µM |
| CCN(CC)CCCCNc1cc2nc(NC(=O)NC(C)(C)C)c(-c3ccccc3)cc2cn1 |  | 0.45 µM | 0.11 µM |
| CN1CCN(CCCNc2cc3nc(N)c(-c4c(Cl)cccc4Cl)cc3cn2)CC1 |  | 4.7 µM | 0.069 µM |
| COc1cc(OC)cc(C2Cc3cnc(N(CCCO)C(C)=O)cc3N=C2NC(=O)NC(C)(C)C)c1 (stereo unspecified) |  | > 50 µM | > 50 µM |
| COc1cc(OC)cc(-c2cc3cnc(NCCCN4CCN(C)CC4)cc3nc2N)c1 | 9.1 µM | 50 µM | > 50 µM |
| COc1cc(OC)cc(-c2cc3cnc(NCCCO)nc3nc2NC(=O)NC(C)(C)C)c1 | 11 µM | > 50 µM | > 50 µM |
| COc1cc(OC)cc(-c2cc3cnc(NCCCCCOc4ccccc4)cc3nc2NC(=O)NC(C)(C)C)c1 |  | > 50 µM | > 50 µM |
| COc1cc(OC)cc(-c2cc3cnc(NCCCCCN4CCOCC4)cc3nc2NC(=O)NC(C)(C)C)c1 | 2.9 µM | > 50 µM | 16 µM |
| COc1cc(OC)cc(-c2cc3cnc(NCCCCOc4ccccc4)cc3nc2NC(=O)NC(C)(C)C)c1 |  | > 50 µM | > 50 µM |
| COc1cc(OC)cc(-c2cc3cnc(N(CCCOCc4ccccc4)C(C)=O)cc3nc2NC(=O)NC(C)(C)C)c1 |  | > 50 µM | > 50 µM |
| COc1cc(OC)cc(-c2cc3cnc(NCCCCO)cc3nc2NC(=O)NC(C)(C)C)c1 | 1.2 µM | 23 µM | > 50 µM |
